{"source": "patent US6025365A", "about": "“Chelerythrine and radiation combined tumor therapy” (Arch Development Corp., priority 1997, dated 2000)", "key": {"SQ20-B cells": {"test_system": "SQ20-B cells", "experiment": "Clonogenic survival / colony formation assay", "type": "cell-based, human", "experimental": "FIG. 2. Chelerythrine chloride enhanced IR-mediated cell killing through divisional death. Clonogenic survival was measured following exposure to increasing concentrations of chelerythrine and ionizing radiation. Cells were plated at cell numbers between about 500 cells/plate and about 2000 cells/plate and treated with 0 μM, 0.5 μM, or 1.0 μM chelerythrine chloride for 30 minutes prior to irradiation. After 2 weeks the colonies were scored for survival if they were composed of more than 50 cells. Results represent the mean of three individual experiments with duplicate or triplicate determinants. Error bars represent +/- the standard error of the means (SEM).\nFIG. 5C. […] Closed circles represent radiation alone; closed squares represenet addition of 20 μM C2-Ceramide 30 minutes prior to x-ray.\nExponentially growing SQ20B cultures were trypsinized using 0.05% trypsin+0.02% EDTA. Cells (100 to 50,000) were plated in 100 mm tissue culture dishes. Chelerythrine or C2-ceramide was added 4 hours after plating and irradiated for 30 minutes after the addition of chelerythrine or C2-ceramide. The cells were irradiated using a GE Maxitron 250 x-ray generator operating at 250 kV and 26 mA with a dose rate of 114 cGy/min. After 12 days the cells were fixed and stained with crystal violet following standard procedures (Chmura et al., 1996a; 1996b). Colonies of >50 cells were scored as survivors.\nClonogenic survival was measured following increasing concentrations of chelerythrine chloride alone (0.5-1.5 μM), IR alone (1-9 Gy), or the combined treatment of cells with chelerythrine and IR. […] At a concentration of 500 nM, chelerythrine decreased cell survival to about 80% of untreated control cells (about 20% cell death). The combined treatment of cells with 500 nM of chelerythrine 30 minutes prior to treatment with 3 Gy of radiation decreased cell survival to about 30% of untreated cells (about 70% cell death). […] Cell shrinkage and nuclear condensation, characteristic of apoptosis, were not observed at these concentrations of chelerythrine and IR."}, "SQ-20B xenografts [1]": {"test_system": "SQ-20B xenografts", "experiment": "Growth of SQ-20B tumor xenografts in nude mice", "type": "in vivo, nude mice (human tumor xenograft)", "experimental": "FIG. 6. The SQ-20B xenograft system was used to assess the therapeutic efficacy of the combined treatment modality over 30 days. Forty animals (n=40) were treated in each group and the % mean tumor growth was determined for all animals. Calipers were used to measure tumor growth.\nSQ-20B (1-5×10^6) tumor cells were injected into the right hind limbs of nude mice (Fredrick Cancer Research Institute). Xenografts were grown for 2-3 weeks to a mean tumor volume of […]. At day 0, initial tumor volume was determined by direct measurement with calipers. During treatment tumor volumes were measured with calipers twice weekly and represented as percent of original tumor volume. Tumor volumes were calculated by the formula (a×b×c/2) which was derived from that for an ellipsoid (d3/6). Tumor cure was defined as regression to a volume of <10% of original size since, at this volume, it is impossible to differentiate residual tumor from scar tissue. Xenografts were injected with 2 mg/kg chelerythrine chloride on days 0, 3, 7 and 10. Irradiated mice were immobilized in lucite chambers and the entire body was shielded with lead except for the tumor bearing hind limb 14. Tumors were irradiated (5 Gy/day, 4 days/week) to a total dose of 50 Gy using a Maxitron generator (1.88 Gy/min.). Tumors were treated with radiation alone, chelerythrine alone, and buffer or chelerythrine combined with radiation. Data were calculated as the percent of original (day 0) tumor volume and graphed as fractional tumor volume±SEM.\nRadiation was delivered at 5 Gy/day, 4 days per week, for a total of 50 Gy."}, "SQ-20B xenografts [2]": {"test_system": "SQ-20B xenografts", "experiment": "Histology of SQ-20B xenografts", "type": "in vivo, nude mice (human tumor xenograft)", "settings": "combined x-ray and chelerythrine vs IR", "experimental": "Tumors were injected once or twice (day 0 and day 4) with chelerythrine, chelerythrine and 20 Gy (5 Gy/Day) or 20 Gy alone and excised on day 7, fixed in 10% neutral buffered formalin. Tumors were then trimmed and processed in a Tissue Tek II Tissue Processor. Tissues were embedded in paraffin, sectioned and stained with hematoxylin and eosin or with […] of DAPI (4',6-iamidino-2-phenylindole, Sigma D9542, 1 μg/ml in PBT (PBS+1% Triton X-100)), followed by examination for apoptosis and necrosis by light microscopy.\nIn contrast, 1/16 of the radiation+buffer and 13/43 of the chelerythrine only treated animals regressed to less than 10% of the initial tumor volume. […] Representative sections of non-necrotic areas of tumors were stained with DAPI to detect nuclear changes of apoptosis. Tumor sections were taken at day 7 following treatment with 2 injections of chelerythrine alone, 20 Gy alone, 1 injection of chelerythrine and 20 Gy, or 2 treatments with chelerythrine and 20 Gy. Nuclei from non-necrotic areas of tumors treated with radiation alone appeared rounded and contained a smooth heterachromatin appearance. Few apoptotic nuclei as defined by chromatin margination and nuclear shrinkage could be detected in these areas."}, "L-1210 tumor cells": {"test_system": "L-1210 tumor cells", "settings": "l1210 cells; cited from earlier work"}, "[3]": {"settings": "500 nM chelerythrine 30 minutes prior to 3 Gy"}}, "note": "pIC50: −log10 of the molar value.", "data": [{"compound": "COc1ccc2c(c[n+](C)c3c4cc5c(cc4ccc23)OCO5)c1OC", "note": "[chelerythrine, 1,2-dimethoxy-12-methyl[1,3]benzodioxolo[5,6-c]phenanthridinium]", "values": [{"measurement": "cell death, combined treatment", "setting": "SQ20-B cells; [3]", "value": "about 70%"}, {"measurement": "cell survival, combined treatment", "setting": "SQ20-B cells; [3]", "value": "about 30 % of untreated cells"}, {"measurement": "cytotoxicity at 0.5 µM", "setting": "SQ20-B cells; Homo sapiens, SQ20B, read-out: cell death", "value": "~20", "unit": "%"}, {"measurement": "viability at 0.5 µM", "setting": "SQ20-B cells; Homo sapiens, SQ20B, 500 nM chelerythrine alone", "value": "~80", "unit": "%"}, {"measurement": "animals with regression to less than 10% of original tumor volume, combined treatment", "setting": "SQ-20B xenografts [1]; 2 mg/kg chelerythrine x4 plus 50 Gy, day 31", "value": "20/41"}, {"measurement": "animals with regression to less than 10% of initial tumor volume, chelerythrine only", "setting": "SQ-20B xenografts [1]; 2 mg/kg x4, day 31", "value": "13/43"}, {"measurement": "tumor regrowth, volume at day 30", "setting": "SQ-20B xenografts [1]; chelerythrine alone, 2 mg/kg days 0, 3, 7, 10", "value": "174 % of the original volume"}, {"measurement": "inflammatory response and necrosis in epidermis and muscle", "setting": "SQ-20B xenografts [2]", "value": "did not increase this response"}, {"measurement": "pIC50", "setting": "L-1210 tumor cells", "value": 7.28}]}]}
